Results on 27 molecules are retold here after patent publication US20240083903A1, “ARYL ETHER COMPOUNDS AS TEAD MODULATORS” (Merck Sharp& Dohme LLC, priority 2021, published 2024).

This experiment deals with TEAD Reporter-MCF7 cell line. In words: YAP/TEAD cellular activity assay: inhibition of TEAD-Luc activity in TEAD Reporter-MCF7 cell line. Type of experiment: cell-based, human. To be noted: TEAD Reporter-MCF7 cells, 24 hours incubation with compound, luciferase readout. Here is the method: YAP/TEAD Cellular Activity Assay
Quantitation of Compound Potency on the Inhibition of TEAD-Luc Activity in TEAD Reporter-MCF7 Cell Line.
The TEAD Reporter-MCF7 cell line containing the firefly luciferase gene under the control of TEAD responsive elements stably integrated into the human breast cancer cell line was purchased from BPS Bioscience (Cat #60618). The cells were cultured with complete culture medium ([…], 1 mM sodium pyruvate, 10% fetal bovine serum, 10 ng/mL insulin and 400 ug/mL G418 sulfate) prior to the assay. For the assay, the cells were harvested, resuspended in the complete culture medium without G418, and seeded into white solid bottom 384-well cell culture microplates in 25 uL with 10,000 cells per well. The plates were incubated at 37° C. in a CO2 incubator for 20-24 hours and the compounds were then transferred from Echo LDV plates directly into the 384-well white tissue culture plates with an Echo. The plates were incubated at 37° C. in a CO2 incubator for 24 hours and equal volume of ONE-Glo™ EX Luciferase reagent (Promega, Cat #E8150) was added. After mixing on a shaker at room temperature for 10 minutes, the luciferase activity was measured with an Envision. The percentage inhibition and EC50 values of compounds were calculated with Spotfire.
Required Materials • 1. TEAD reporter-MCF-7 Cells (BPS Bioscience, #60618) • 2. Complete Cell Culture Medium (without selection antibiotics) • EMEM 89% (ATCC, #30-2003) • FBS 10% (Hyclone, #SH30088.03) • 1% Non essential amino acids (Gibco, • 1 mM sodium pyruvate (Gibco, • Pen/Strep, 1% (Gibco, #15140-122) • 10 ng/mL insulin (Sigma, #10516) • 3. Complete Cell Culture Medium (with selection antibiotics) • EMEM 89% (ATCC, #30-2003) • F1% Non essential amino acids (Gibco, • 1 mM sodium pyruvate (Gibco, • BS 10% (Hyclone, #SH30088.03) • 10 ng/mL insulin (Sigma, #10516) • 400 ug/mL G418 sulfate (Agilent, #200049-21) • 4. Miscellaneous tissue culture equipment and reagents. • 5. White solid 384-well tissue culture plate (Greiner, Cat #781080) • 6. One Glo EX luciferase assay system (Promega, #E8150)
The following table tabulates the biological data disclosed for the current invention. The biological data was collected using the methodology described above. For each compound, TEAD-Luc EC50 values are listed in nanomolar (nM) concentration units.

In general, EC50 refers to the midpoint of the concentration-response curve.

`CNS(=O)(=O)c1ccc(Oc2ccc(C(F)(F)F)cc2)c(-c2cn3c(n2)OC(C)C3)c1` (single isomer, unassigned) [1-38, (R)- or (S)-N-methyl-3-(2-methyl-2,3-dihydroimidazo[2,1-b] [1,3]oxazol-6-yl)-4-[4-(trifluoromethyl)phenoxy]benzene-1-sulfonamide]: the EC50 turned out to be 28.4 nM.
Same read-out and setting: then `CNS(=O)(=O)c1ccc(Oc2ccc(C(F)(F)F)cc2)c(-c2cn3c(n2)OC(C)C3)c1` (single isomer, unassigned) [1-39, (S)- or (R)-N-methyl-3-(2-methyl-2,3-dihydroimidazo[2,1-b] [1,3]oxazol-6-yl)-4-[4-(trifluoromethyl)phenoxy]benzene-1-sulfonamide], with 7.4 nM; and `CNS(=O)(=O)c1ccc(Oc2ccc(C(F)(F)F)cc2)c(-c2cn3c(n2)CC(C)C3)c1` (single isomer, unassigned) [1-41, (R)- or (S)-N-methyl-3-(6-methyl-6,7-dihydro-5H-pyrrolo [1,2-a]imidazol-2-yl)-4-[4-(trifluoromethyl)phenoxy]benzene-1-sulfonamide], with 26.1 nM.
As to `CNS(=O)(=O)c1ccc(Oc2ccc(C(F)(F)F)cc2)c(-c2cn3c(n2)CC(C)C3)c1` (single isomer, unassigned) [1-42, (S)- or (R)-N-methyl-3-(6-methyl-6,7-dihydro-5H-pyrrolo[1,2-a]imidazol-2-yl)-4-[4-(trifluoromethyl)phenoxy]benzene-1-sulfonamide], the EC50 was 6.4 nM.
The same measure, in the same setting: then `CNS(=O)(=O)c1ccc(Oc2ccc(C(F)(F)F)cc2)c(-c2cn3c(n2)C(C)CC3)c1` (single isomer, unassigned) [1-43, (R)- or (S)-N-methyl-3-(7-methyl-6,7-dihydro-5H-pyrrolo[1,2-a]imidazol-2-yl)-4-[4-(trifluoromethyl)phenoxy]benzene-1-sulfonamide], with 8.1 nM; and `CNS(=O)(=O)c1ccc(Oc2ccc(C(F)(F)F)cc2)c(-c2cn3c(n2)C(C)CC3)c1` (single isomer, unassigned) [1-44, (S)- or (R)-N-methyl-3-(7-methyl-6,7-dihydro-5H-pyrrolo[1,2-a]imidazol-2-yl)-4-[4-(trifluoromethyl)phenoxy]benzene-1-sulfonamide], with 33.6 nM.
Take `CNS(=O)(=O)c1ccc(Oc2ccc(C(F)(F)F)cc2)c(-c2cn3c(n2)CCC3)c1` [1-1, 3-(6,7-Dihydro-5H-pyrrolo[1,2-a]imidazol-2-yl)-N-methyl-4-(4-(trifluoromethyl)phenoxy)benzenesulfonamide]: where the note is “Homo sapiens, MCF7, 24 h”, the EC50 came out at 6 nM.
On the same count and under the same terms, then `CNS(=O)(=O)c1ccc(Oc2ccc(C(F)(F)F)cc2)c(-c2cc3n(n2)CCC3)c1` [1-2, 3-(5,6-Dihydro-4H-pyrrolo[1,2-b]pyrazol-2-yl)-N-methyl-4-(4-(trifluoromethyl)phenoxy)benzenesulfonamide], with 5.1 nM; and `CNS(=O)(=O)c1ccc(Oc2ccc(C(F)(F)F)cc2)c(-c2cn3c(n2)COCC3)c1` [1-3, 3-(5,6-Dihydro-8H-imidazo[2,1-c] [1,4]oxazin-2-yl)-N-methyl-4-(4-(trifluoromethyl)phenoxy)benzenesulfonamide], with 36.2 nM; and `CNS(=O)(=O)c1ccc(Oc2ccc(C(F)(F)F)cc2)c(-c2cnc3c(C)cccn23)c1` [1-4, N-Methyl-3-(8-methylimidazo[1,2-a]pyridin-3-yl)-4-(4-(trifluoromethyl)phenoxy)benzenesulfonamide], with 6030 nM.
`CNS(=O)(=O)c1ccc(Oc2ccc(C(F)(F)F)cc2)c(-c2cnn3c2CCC3)c1` [1-5, 3-(5,6-dihydro-4H-pyrrolo[1,2-b]pyrazol-3-yl)-N-methyl-4-[4-(trifluoromethyl)phenoxy]benzene-1-sulfonamide]: the EC50 (Homo sapiens, MCF7, 24 h) was determined as 106 nM.
As to `CNS(=O)(=O)c1ccc(Oc2ccc(C(F)(F)F)cc2)c(-c2cnc3n2CCC3)c1` [1-6, 3-(6,7-dihydro-5H-pyrrolo[1,2-a]imidazol-3-yl)-N-methyl-4-[4-(trifluoromethyl)phenoxy]benzene-1-sulfonamide], under “Homo sapiens, MCF7, 24 h”, the EC50 stood at 3490 nM.
Turning to `CNS(=O)(=O)c1ccc(Oc2ccc(C(F)(F)F)cc2)c(-c2ncc3cnccn23)c1` [1-7, 3-(imidazo[1,5-a]pyrazin-3-yl)-N-methyl-4-[4-(trifluoromethyl)phenoxy]benzene-1-sulfonamide], for the setting “Homo sapiens, MCF7, 24 h”, the EC50 was 5350 nM.
For `CNS(=O)(=O)c1ccc(Oc2ccc(C(F)(F)F)cc2)c(-c2[nH]nc3ccccc23)c1` [1-8, 3-(2H-indazol-3-yl)-N-methyl-4-[4-(trifluoromethyl)phenoxy]benzene-1-sulfonamide], the EC50 (Homo sapiens, MCF7, 24 h) was determined as 2870 nM.
Regarding `CNS(=O)(=O)c1ccc(Oc2ccc(C(F)(F)F)cc2)c(-c2cn3c(n2)CCCC3)c1` [1-9, N-methyl-3-(5,6,7,8-tetrahydroimidazo [1,2-a]pyridin-2-yl)-4-[4-(trifluoromethyl)phenoxy]benzene-1-sulfonamide], the EC50 (Homo sapiens, MCF7, 24 h) was 12.8 nM.
Consider `CNS(=O)(=O)c1ccc(Oc2ccc(C(F)(F)F)cc2)c(-c2nc3ncccn3n2)c1` [1-10, N-methyl-3-([1,2,4]triazolo[1,5-a]pyrimidin-2-yl)-4-[4-(trifluoromethyl)phenoxy]benzene-1-sulfonamide], for which the EC50 (Homo sapiens, MCF7, 24 h) was 454 nM.
For the molecule `CNS(=O)(=O)c1ccc(Oc2ccc(C(F)(F)F)cc2)c(-c2nc3cccnc3s2)c1` [1-11, N-methyl-3-([1,3]thiazolo[5,4-b]pyridin-2-yl)-4-[4-(trifluoromethyl)phenoxy]benzene-1-sulfonamide], the EC50 (Homo sapiens, MCF7, 24 h) is 238 nM.
Turning to `CNS(=O)(=O)c1ccc(Oc2ccc(C(F)(F)F)cc2)c(-c2nc3cc(OC)ccc3[nH]2)c1` [1-12, 3-(5-methoxy-1H-benzimidazol-2-yl)-N-methy1-4-[4-(trifluoromethyl)phenoxy]benzene-1-sulfonamide], the 50% effective concentration (EC50) (Homo sapiens, MCF7, 24 h) was found to be 5440 nM.
On the same count and under the same terms, then `CNS(=O)(=O)c1ccc(Oc2ccc(C(F)(F)F)cc2)c(-c2nsc3ccccc23)c1` [1-13, 3-(1,2-benzothiazol-3-yl)-N-methyl-4-[4-(trifluoromethyl)phenoxy]benzene-1-sulfonamide], with 414 nM.
For `CNS(=O)(=O)c1ccc(Oc2ccc(C(F)(F)F)cc2)c(-c2nc3c(s2)CNC3)c1` [1-14, 3-(5,6-dihydro-4H-pyrrolo[3,4-d] [1,3]thiazol-2-yl)-N-methyl-4-[4-(trifluoromethyl)phenoxy]benzene-1-sulfonamide], the EC50 (Homo sapiens, MCF7, 24 h) turned out to be 2640 nM.
For `CNS(=O)(=O)c1ccc(Oc2ccc(C(F)(F)F)cc2)c(-c2nc3cnccn3n2)c1` [1-15, N-methyl-3-([1,2,4]triazolo[1,5-a]pyrazin-2-yl)-4-[4-(trifluoromethyl)phenoxy]benzene-1-sulfonamide], the EC50 (Homo sapiens, MCF7, 24 h) stood at 540 nM.
As to `CNS(=O)(=O)c1ccc(Oc2ccc(C(F)(F)F)cc2)c(-c2cc3c(s2)CCNC3)c1` [1-16, N-methyl-3-(4,5,6,7-tetrahydrothieno[3,2-c]pyridin-2-yl)-4-[4-(trifluoromethyl)phenoxy]benzene-1-sulfonamide], the EC50 (Homo sapiens, MCF7, 24 h) came out at 4020 nM.
On the same count and under the same terms, then `CNS(=O)(=O)c1ccc(Oc2ccc(C(F)(F)F)cc2)c(-c2nc3n(c2C#N)CCNC3)c1` [1-17, 3-(3-cyano-5,6,7,8-tetrahydroimidazo[1,2-a]pyrazin-2-yl)-N-methyl-4-[4-(trifluoromethyl)phenoxy]benzene-1-sulfonamide], with 1070 nM; and `CNS(=O)(=O)c1ccc(Oc2ccc(C(F)(F)F)cc2)c(-c2cn3ccsc3n2)c1` [1-18, 3-(imidazo[2,1-b][1,3]thiazol-6-yl)-N-methyl-4-[4-(trifluoromethyl)phenoxy]benzene-1-sulfonamide], with 34.1 nM; and `CNS(=O)(=O)c1ccc(Oc2ccc(C(F)(F)F)cc2)c(-c2cc3ncccn3n2)c1` [1-19, N-methyl-3-(pyrazolo[1,5-a]pyrimidin-2-yl)-4-[4-(trifluoromethyl)phenoxy]benzene-1-sulfonamide], with 60.6 nM.
For `CNS(=O)(=O)c1ccc(Oc2ccc(C(F)(F)F)cc2)c(-c2cnc3ccccn23)c1` [1-20, 3-(imidazo[1,2-a]pyridin-3-yl)-N-methyl-4-[4-(trifluoromethyl)phenoxy]benzene-1-sulfonamide], the EC50 (Homo sapiens, MCF7, 24 h) was found to be 7140 nM.
The same measure, in the same setting: under `CNS(=O)(=O)c1ccc(Oc2ccc(C(F)(F)F)cc2)c(-c2cnc3c(N)cccn23)c1` [1-21, 3-(8-aminoimidazo[1,2-a]pyridin-3-yl)-N-methyl-4-[4-(trifluoromethyl)phenoxy]benzene-1-sulfonamide] stands 9280 nM.
